Assay: xn = mol fraction of the nth substance listed
Settings: 101 kPa

CC[NH2+]CC.O=[N+]([O-])[O-] + CC[NH3+].O=[N+]([O-])[O-]
Settings | electrical conductivity [S/m] | viscosity [mPa·s]
293.15 K, x1 = 0.0499 | 1.8 | 44.4
293.15 K, x1 = 0.1499 | 1.69 | 45.4
293.15 K, x1 = 0.1999 | 1.55 | 49.7
293.15 K, x1 = 0.2501 | 1.59 | 46
293.15 K, x1 = 0.2998 | 1.55 | 45.6
298.15 K, x1 = 0.0499 | 2.1 | 37.2
298.15 K, x1 = 0.0998 | 2.02 | 36.2
298.15 K, x1 = 0.1499 | 1.99 | 37.9
298.15 K, x1 = 0.1999 | 1.83 | 41.3
298.15 K, x1 = 0.2998 | 1.87 | 37.9
298.15 K, x1 = 0.3501 | 1.72 | 41.2
303.15 K, x1 = 0.0499 | 2.43 | 31.5
303.15 K, x1 = 0.0998 | 2.34 | 30.6
303.15 K, x1 = 0.1499 | 2.31 | 31.9
303.15 K, x1 = 0.1999 | 2.12 | 34.7
303.15 K, x1 = 0.2501 | 2.18 | 32.2
303.15 K, x1 = 0.2998 | 2.18 | 31.9
303.15 K, x1 = 0.3501 | 2 | 34.5
308.15 K, x1 = 0.0998 | 2.69 | 26.2
308.15 K, x1 = 0.1499 | 2.64 | 27.3
308.15 K, x1 = 0.1999 | 2.44 | 29.4
308.15 K, x1 = 0.2501 | 2.5 | 27.4
308.15 K, x1 = 0.2998 | 2.5 | 27.2
308.15 K, x1 = 0.3501 | 2.3 | 29.2
313.15 K, x1 = 0.0499 | 3.16 | 23.2
313.15 K, x1 = 0.0998 | 3.06 | 22.4
313.15 K, x1 = 0.1499 | 3.01 | 23.4
313.15 K, x1 = 0.2501 | 2.84 | 23.4
313.15 K, x1 = 0.2998 | 2.84 | 23.3
318.15 K, x1 = 0.0499 | 3.55 | 20.2
318.15 K, x1 = 0.1999 | 3.15 | 21.8
318.15 K, x1 = 0.2501 | 3.2 | 20.4
318.15 K, x1 = 0.3501 | 2.97 | 21.6
323.15 K, x1 = 0.0499 | 3.97 | 17.8
323.15 K, x1 = 0.0998 | 3.85 | 17.3
323.15 K, x1 = 0.2501 | 3.59 | 17.8
323.15 K, x1 = 0.2998 | 3.59 | 17.8
323.15 K, x1 = 0.3501 | 3.34 | 18.8
328.15 K, x1 = 0.0499 | – | 15.7
328.15 K, x1 = 0.1499 | – | 15.8
328.15 K, x1 = 0.1999 | – | 16.7
328.15 K, x1 = 0.2501 | – | 15.7
328.15 K, x1 = 0.3501 | – | 16.5
333.15 K, x1 = 0.0499 | – | 13.9
333.15 K, x1 = 0.0998 | – | 13.6
333.15 K, x1 = 0.1499 | – | 14
333.15 K, x1 = 0.1999 | – | 14.7
333.15 K, x1 = 0.2501 | – | 13.9
333.15 K, x1 = 0.2998 | – | 13.9
333.15 K, x1 = 0.3501 | – | 14.6
338.15 K, x1 = 0.0499 | – | 12.5
338.15 K, x1 = 0.0998 | – | 12.1
338.15 K, x1 = 0.1499 | – | 12.5
338.15 K, x1 = 0.1999 | – | 13.1
338.15 K, x1 = 0.2501 | – | 12.5
338.15 K, x1 = 0.3501 | – | 13
343.15 K, x1 = 0.0998 | – | 10.8
343.15 K, x1 = 0.1999 | – | 11.9
343.15 K, x1 = 0.2501 | – | 11.2
343.15 K, x1 = 0.2998 | – | 10.9
343.15 K, x1 = 0.3501 | – | 11.7
348.15 K, x1 = 0.0998 | – | 9.8
348.15 K, x1 = 0.1499 | – | 10.1
348.15 K, x1 = 0.1999 | – | 10.7
348.15 K, x1 = 0.2501 | – | 10.1
348.15 K, x1 = 0.2998 | – | 9.6
348.15 K, x1 = 0.3501 | – | 10.5
353.15 K, x1 = 0.0499 | – | 9.2
353.15 K, x1 = 0.2501 | – | 9.14
353.15 K, x1 = 0.2998 | – | 8.69

CC[NH3+].O=[N+]([O-])[O-] + CC[NH+](CC)CC.O=[N+]([O-])[O-]
x2 = 0
Settings | electrical conductivity [S/m] | viscosity [mPa·s]
303.15 K | 2.6 | 31
308.15 K | 2.97 | 26.5
318.15 K | 3.78 | 20
328.15 K | – | 15.6
333.15 K | – | 13.8
338.15 K | – | 12.5
343.15 K | – | 11.2
348.15 K | – | 10.2
353.15 K | – | 9.2
